US6458748B1, “Di- or tri-fluoromethanesulfonyl anilide derivatives, process for the preparation of them and herbicides containing them as the active ingredient” (Ihara Chemical Industry Co., Ltd., priority 1998, dated 2002)

Key:
Sagittaria pygmaea Miq. = experiment: Test 4 paddy pot herbicidal effect; details: applied next day, 28th day from application
[1] = tested on: Echinochloa oryzicola vasing.; experiment: Test 4 paddy pot herbicidal effect; details: applied next day, 28th day from application
[2] = tested on: Monochoria vaginalis (Burm. f.) Presl var. plantaginea (Roxb.) Solms-Laub.; experiment: Test 1 paddy pot herbicidal effect, water surface application; assay type: in vivo; details: applied day after sowing, evaluated 28 days later
Description: (§1) Standard of herbicidal effect (level of suppression of development and growth) […] Herbicidal effect of 90% or more, injury to paddy rice […] Herbicidal effect of 70% or more to less than 90%, injury to paddy rice […] 2: […]

[3] = tested on: Echinochloa oryzicola vasing.; experiment: as above; assay type: in vivo; details: applied day after sowing, evaluated 28 days later
Description: as §1

[4] = tested on: Echindchloa oryzicola Vasing. (Ec); experiment: Test 5 herbicidal effect by application stage; details: 28th day from application
Cyperus serotinus Rottb. = experiment: Test 4 paddy pot herbicidal effect; details: applied next day, 28th day from application

Q: How did the “Herbicidal effect Sa” value (Sagittaria pygmaea Miq.; 0.6 g/10 ares) turn out when “2-[(4,6-dimethoxypyrimidine-2-yl)hydroxymethyl]-6-methoxymethyltrifluoromethanesulfonyl anilide [Example 4]” was run?
A: Its value is 4 (Herbicidal effect of 70% or more to less than 90%, injury to paddy rice).

Q: What about the “Herbicidal effect Sa” value (Sagittaria pygmaea Miq.; 1.3 g/10 ares) of the same substance?
A: The value was 5 (Herbicidal effect of 90% or more, injury to paddy rice).

Q: And the “Herbicidal effect Sa” value (Sagittaria pygmaea Miq.; 2.5 g/10 ares)?
A: The value was 5 (Herbicidal effect of 90% or more, injury to paddy rice).

Q: What about the “Herbicidal effect Sa” value (Sagittaria pygmaea Miq.; 5.0 g/10 ares) of the same substance?
A: The value was 5 (Herbicidal effect of 90% or more, injury to paddy rice).

Q: And the “Herbicidal effect Ec” value ([1]; 0.6 g/10 ares)?
A: Its value is 2 (Herbicidal effect of 30% or more to less than 50%, injury to paddy rice).

Q: And the “Herbicidal effect Ec” value ([1]; 1.3 g/10 ares)?
A: The value was 4 (Herbicidal effect of 70% or more to less than 90%, injury to paddy rice).

Q: What about the “Herbicidal effect Ec” value ([1]; 2.5 g/10 ares) of the same substance?
A: Its value is 5 (Herbicidal effect of 90% or more, injury to paddy rice).

Q: What about the “Herbicidal effect Ec” value ([1]; 5.0 g/10 ares) of the same substance?
A: Its value is 5 (Herbicidal effect of 90% or more, injury to paddy rice).

Q: What about the “Herbicidal effect Mo” value ([2]; 0.4 g/10 ares) of the same substance?
A: The value was 3 (Herbicidal effect of 50% or more to less than 70%, injury to paddy rice).

Q: What about the “Herbicidal effect Mo” value ([2]; 1.6 g/10 ares) of the same substance?
A: The value was 5 (Herbicidal effect of 90% or more, injury to paddy rice).

Q: And the “Herbicidal effect Mo” value ([2]; 6.3 g/10 ares)?
A: Its value is 5 (Herbicidal effect of 90% or more, injury to paddy rice).

Q: What about the “Herbicidal effect Mo” value ([2]; 25.0 g/10 ares) of the same substance?
A: The value was 5 (Herbicidal effect of 90% or more, injury to paddy rice).

Q: What about the “Herbicidal effect Ec” value ([3]; 0.4 g/10 ares) of the same substance?
A: The value was 2 (Herbicidal effect of 30% or more to less than 50%, injury to paddy rice).

Q: What about the “Herbicidal effect Ec” value ([3]; 1.6 g/10 ares) of the same substance?
A: The value was 5 (Herbicidal effect of 90% or more, injury to paddy rice).

Q: What about the “Herbicidal effect Ec” value ([3]; 6.3 g/10 ares) of the same substance?
A: The value was 5 (Herbicidal effect of 90% or more, injury to paddy rice).

Q: What about the “Herbicidal effect Ec” value ([3]; 25.0 g/10 ares) of the same substance?
A: The value was 5 (Herbicidal effect of 90% or more, injury to paddy rice).

Q: What about the “Herbicidal effect (Ec) Application stage 1-leaf” value ([4]; 1.3 g/10 ares) of the same substance?
A: Its value is 4 (Herbicidal effect of 70% or more to less than 90%, injury to paddy rice).

Q: What about the “Herbicidal effect (Ec) Application stage 2-leaf” value ([4]; 1.3 g/10 ares) of the same substance?
A: The value was 3 (Herbicidal effect of 50% or more to less than 70%, injury to paddy rice).

Q: And the “Herbicidal effect (Ec) Application stage 3-leaf” value ([4]; 1.3 g/10 ares)?
A: Its value is 3 (Herbicidal effect of 50% or more to less than 70%, injury to paddy rice).

Q: And the “Herbicidal effect (Ec) Application stage 1-leaf” value ([4]; 2.5 g/10 ares)?
A: Its value is 5 (Herbicidal effect of 90% or more, injury to paddy rice).

Q: And the “Herbicidal effect (Ec) Application stage 2-leaf” value ([4]; 2.5 g/10 ares)?
A: The value was 5 (Herbicidal effect of 90% or more, injury to paddy rice).

Q: And the “Herbicidal effect (Ec) Application stage 3-leaf” value ([4]; 2.5 g/10 ares)?
A: Its value is 5 (Herbicidal effect of 90% or more, injury to paddy rice).

Q: And the “Herbicidal effect (Ec) Application stage 1-leaf” value ([4]; 5.0 g/10 ares)?
A: The value was 5 (Herbicidal effect of 90% or more, injury to paddy rice).

Q: What about the “Herbicidal effect (Ec) Application stage 2-leaf” value ([4]; 5.0 g/10 ares) of the same substance?
A: The value was 5 (Herbicidal effect of 90% or more, injury to paddy rice).

Q: What about the “Herbicidal effect (Ec) Application stage 3-leaf” value ([4]; 5.0 g/10 ares) of the same substance?
A: The value was 5 (Herbicidal effect of 90% or more, injury to paddy rice).

Q: What about the “Herbicidal effect Cy” value (Cyperus serotinus Rottb.; 0.6 g/10 ares) of the same substance?
A: Its value is 4 (Herbicidal effect of 70% or more to less than 90%, injury to paddy rice).

Q: What about the “Herbicidal effect Cy” value (Cyperus serotinus Rottb.; 1.3 g/10 ares) of the same substance?
A: The value was 5 (Herbicidal effect of 90% or more, injury to paddy rice).

Q: And the “Herbicidal effect Cy” value (Cyperus serotinus Rottb.; 2.5 g/10 ares)?
A: Its value is 5 (Herbicidal effect of 90% or more, injury to paddy rice).

Q: What about the “Herbicidal effect Cy” value (Cyperus serotinus Rottb.; 5.0 g/10 ares) of the same substance?
A: The value was 5 (Herbicidal effect of 90% or more, injury to paddy rice).
